Assays:
Nicotiana benthamiana = assay: Test Example 4: growth promotion under low-temperature stress by hydroponics of Nicotiana benthamiana, 10 ppm; format: in vivo; details: 10 ppm in medium, low-temperature stress 7 days at 1.5±1.0° C., green leaf area 3 days later, equation (1)
Procedure, shortened: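 Nicotiana benthamiana grown 7 days at 22 °C in half-strength Murashige-Skoog medium, pH 5.8, with compound at 10 ppm (DMSO 1/1,000 v/v), chilled 7 days at 1.5±1.0 °C, recovered 3 days at 22 °C. Green leaf area expressed relative to stressed and unstressed DMSO controls; ≥5 scored as mitigating.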

[1] = test system: Rice (variety: Nipponbare); assay: Test Example 3: promotion of root growth by hydroponics of rice, 0.1 ppm; format: in vivo; details: Oryza sativa, hydroponic solution containing the test compound at 0.1 ppm, average of 4 or 5 individuals, read-out: Relative value of length of seminal root (%-untreated control plot)
Procedure, shortened: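 Surface-sterilised Nipponbare seeds were germinated 3 days in the dark at 28 °C in ¼-strength Hoagland solution containing 0.1 ppm compound; DMSO-only solution served as control. Seedlings were then grown 3 days hydroponically at 26 °C, 4,000 lux, 16 h day. Seminal root length was measured and averaged over 4–5 plants.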

Row | SMILES | relative leaf area at 10 ppm (Nicotiana benthamiana) | change in vivo at 0.1 ppm [1]
1 | COC(=O)c1cc2ccccc2o1 [Compound 1] | ≥ 5% | 
2 | O=C(NCc1ccccc1)c1cc2cc(C(F)(F)F)ccc2o1 [Compound 54] | ≥ 5% | > 5%
3 | COC(=O)c1oc2ccc(C(F)(F)F)cc2c1O [Compound 50] |  | > 5%
4 | O=C(O)c1cc2c(C(F)(F)F)cccc2o1 [Compound 43] | ≥ 5% | > 5%
5 | COC(=O)c1oc2ccccc2c1C(F)(F)F [Compound 83] | ≥ 5% | > 5%
6 | O=C(NCc1ccccc1)c1oc2ccc(C(F)(F)F)cc2c1C(F)(F)F [Compound 77] | ≥ 5% | 
7 | COC(=O)c1oc2ccccc2c1NC(=O)C(F)(F)F [Compound 39] | ≥ 5% | 
8 | O=C(Nc1ccccc1)c1cc2cc(C(F)(F)F)ccc2o1 [Compound 53] | ≥ 5% | > 5%
9 | COC(=O)c1oc2ccccc2c1C [Compound 37] |  | > 5%
10 | COC(=O)c1oc2ccc(C(F)(F)F)cc2c1N(C)C [Compound 62] | ≥ 5% | 
11 | CNC(=O)c1cc2cc(C(F)(F)F)ccc2o1 [Compound 52] |  | > 5%
12 | CCOC(=O)c1oc2cccc(O)c2c1C [Compound 80] |  | > 5%
13 | O=C(O)c1oc2ccc(C(F)(F)F)cc2c1C(F)(F)F [Compound 69] | ≥ 5% | 
14 | NC(=O)c1cc2cc(C(F)(F)F)ccc2o1 [Compound 51] | ≥ 5% | > 5%
15 | COC(=O)c1oc2ccccc2c1N(C(C)=O)C(C)=O [Compound 41] | ≥ 5% | > 5%
16 | Cc1c(C(=O)O)oc2ccc(C(F)(F)F)cc12 [Compound 34] | ≥ 5% | > 5%
17 | Cc1c(C(=O)O)oc2ccccc12 [Compound 36] |  | > 5%
18 | COC(=O)c1oc2ccc(C(F)(F)F)cc2c1NC(C)=O [Compound 63] | ≥ 5% | 

Row | SMILES | relative leaf area at 10 ppm (Nicotiana benthamiana) | change in vivo at 0.1 ppm [1]
19 | COC(=O)c1oc2ccccc2c1NC(C)=O [Compound 40] | ≥ 5% | > 5%
20 | O=C(O)c1nc2c(F)cc(F)cc2s1 [Compound 86] | ≥ 5% | 
21 | O=C(O)c1cc2cc(Br)ccc2o1 [Compound 79] | ≥ 5% | > 5%
22 | O=C(Oc1ccccc1)c1cc2cc(C(F)(F)F)ccc2o1 [Compound 55] | ≥ 5% | > 5%
23 | COC(=O)c1oc2ccc(C(F)(F)F)cc2c1NC(=O)C(F)(F)F [Compound 65] | ≥ 5% | 
24 | COC(=O)c1oc2ccc(C(F)(F)F)cc2c1NS(C)(=O)=O [Compound 67] | ≥ 5% | > 5%
25 | CCOC(=O)c1oc2ccc(C(F)(F)F)cc2c1C(F)(F)F [Compound 71] | ≥ 5% | > 5%
26 | COC(=O)c1oc2ccc(C(F)(F)F)cc2c1NS(=O)(=O)c1ccccc1 [Compound 68] |  | > 5%
27 | COC(=O)c1oc2ccc(C(F)(F)F)cc2c1C [Compound 33] | ≥ 5% | > 5%
28 | O=C(OCc1ccccc1)c1oc2ccc(C(F)(F)F)cc2c1C(F)(F)F [Compound 73] | ≥ 5% | > 5%
29 | O=C(O)c1oc2ccccc2c1C(F)(F)F [Compound 82] | ≥ 5% | 
30 | NC(=O)c1oc2ccc(C(F)(F)F)cc2c1C(F)(F)F [Compound 74] | ≥ 5% | > 5%
31 | COC(=O)c1cc2c(C(F)(F)F)cccc2o1 [Compound 45] |  | > 5%
32 | O=C(Nc1ccccc1)c1oc2ccc(C(F)(F)F)cc2c1C(F)(F)F [Compound 76] |  | > 5%
33 | COC(=O)c1oc2ccc(C(F)(F)F)cc2c1N(C(C)=O)C(C)=O [Compound 64] | ≥ 5% | > 5%
34 | CCOC(=O)c1cc2c(C(F)(F)F)cccc2o1 [Compound 44] | ≥ 5% | > 5%
35 | O=C(OCc1ccccc1)c1cc2cc(C(F)(F)F)ccc2o1 [Compound 56] | ≥ 5% | > 5%
36 | CNC(=O)c1oc2ccc(C(F)(F)F)cc2c1C(F)(F)F [Compound 75] | ≥ 5% | > 5%

Source: patent US20150289512A1, “METHOD FOR PROMOTING PLANT GROWTH” (SUMITOMO CHEMICAL COMPANY, LIMITED, priority 2012, published 2015)
